For data set [1], the target named is T1, Protease XVI: from Bacillus subtilis (Enzyme C) (Bacillus subtilis, UniProt P04189).
T1 sequence (P04189 107-381): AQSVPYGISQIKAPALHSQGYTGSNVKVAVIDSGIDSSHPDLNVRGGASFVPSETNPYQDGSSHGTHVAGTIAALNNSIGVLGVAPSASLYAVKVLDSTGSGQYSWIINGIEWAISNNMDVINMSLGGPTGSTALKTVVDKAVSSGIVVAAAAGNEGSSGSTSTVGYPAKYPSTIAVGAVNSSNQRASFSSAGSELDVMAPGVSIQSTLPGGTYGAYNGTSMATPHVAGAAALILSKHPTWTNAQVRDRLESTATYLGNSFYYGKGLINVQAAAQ
Description: Homogeneous aqueous enzymatic resolution (ester hydrolysis) with Enzyme C. It counts as biochemical. The following applies: acid product; 100 mg enzyme C, 10 mmol ester in 100 ml 0.2 M phosphate buffer pH 7.0, 20-22° C., 20 hours.

Data set [2] deals with protease Prozyme 6 (Enzyme F). Description: Homogeneous aqueous enzymatic resolution (ester hydrolysis) with Enzyme F. It is filed as biochemical, Asperqillus oryzae. The note with it: 100 mg protease (F), 3.22 gm ester in 100 ml 0.2 M sodium phosphate buffer pH 7.0, room temperature, 20 hours. Here is the method: (Prozyme 6) (F) added. The enzymatic reaction mixtures were capped and briefly shaken until all the substrate had dissolved, and the enzyme had completely dissolved or dispersed. […] Evaporation of the ether left a white solid. Rotations were measured at c=1 in CHCl3.
The enzymatic reaction mixtures were capped and briefly shaken until all the substrate had dissolved, and the enzyme had completely dissolved or dispersed. […] Evaporation of the ether left a white solid. Rotations were measured at c=1 in CHCl3.
The reaction was started by adding 100 mg of the protease (F) from the fungus Asperqillus oryzae (from Amano Enzyme Corporation, Prozyme 6, 60,000 units per mg of solid).
After 20 hours at room temperature, the solution was acidified to pH 2 and extracted with 3 volumes of diethyl ether. The aqueous phase was saved for subsequent workup. The ether phase was washed with two volumes of distilled water and then one volume of saturated sodium chloride, and then it was dried over MgSO4 and subsequently evaporated to dryness. The resolved ibuprofen product recovered was 930 mg of white powder, indicating 45% conversion of racemic ester to acid. The optical rotation was -0.580° (measured at c=1 in ethanol), indicating the R isomer of ibuprofen.
35 mg of protease Enzyme F, as the commercial preparation Prozyme 6, were added to the aqueous solution. The reaction flask was capped, and briefly shaken until all the enzyme had dissolved or dispersed. […] The resulting mixture was diluted with one volume of water and was extracted with diethyl ether (2 times 200 ml). The ether layers were combined and backwashed with water (2 times 200 ml), saturated NaCl solution (200 ml), and then dried over MgSO4.
In this control run, a 0.5 M ester solution of (1) was prepared in 325 ml of 0.1 M sodium phosphate buffer (pH 7.0). The reaction was started by adding 3 gm of the above enzyme (F). The pH was controlled at 7.0 with 8.22 M sodium hydroxide. After 6.49 hours at 30° C., 6.63 ml of hydroxide were added, indicating 37.7% conversion. […]

Data set [3] concerns Protease XXIII: from Aspergillus oryzae (Enzyme A). Description: Homogeneous aqueous enzymatic resolution (ester hydrolysis) with Enzyme A. The note with it: 100 mg enzyme A, 10 mmol ester in 100 ml 0.2 M phosphate buffer pH 7.0, 20-22° C., 20 hours.
Description: 10.0 millimole (mmol) of ibuprofen substrate ester 1 (the methyl sulfonate derivative) was dissolved in 100 ml of 0.2 M phosphate buffer of the appropriate cation (sodium or potassium, to be the same as the substrate counterion) at pH 7.0. 100 mg of enzyme A, as the
commercial preparation, was added directly to this solution, and the reaction mixture was capped and then shaken briefly until all the enzyme preparation had dispersed or dissolved. The reaction mixture was then allowed to stand at ambient temperature (20°-22° C.) for 20 hours. […] The combined organic layers were backwashed twice with one volume of water, once with one volume of saturated NaCl solution, and then dried over MgSO4.
Evaporation of the ether under reduced pressure left the resolved ibuprofen acid product; no other purification was performed. The optical rotation was measured in EtOH at a concentration c=1.0 for the ibuprofen acid product.
In this Example, 0.010 mol of ibuprofen ester 3 (the propyl sulfonate derivative) was dissolved in 100 ml 0.2 M sodium phosphate buffer at pH 7.8, and 150 mg of the commercial enzyme A preparation was added. The reaction was then handled as described for Examples 6.2.1.1-6.2.1.7.
In this Example, 0.010 mol of ibuprofen ester 2 (the ethyl sulfonate ester in the form of its potassium salt) were dissolved in 125 ml of 0.2 M sodium phosphate buffer at pH 7.0, and 150 mg of enzyme A was added to the reaction mixture as the commercially supplied preparation. The reaction was allowed to proceed for 18 hours, and the resulting product mixture was then worked-up as described above for Examples 6.2.1.1-6.2.1.7.
150 mg of Protease XXIII (A), as the commercially available preparation, was added to the reaction mixture, the reaction vessel was capped, and the entire heterogeneous reaction mixture was shaken in a wrist-action shaker for 18 hours. […] This mixture was then extracted twice with 200 ml of diethyl ether. The combined organic layers were backwashed twice with one volume of water, once with one volume of saturated NaCl, and the organic phase was then dried over MgSO4. Evaporation of the ether under reduced pressure left the resolved naproxen acid. No further purification was performed. The optical rotation of the product was measured in CHCl3 at a concentration c=1.0.
0.010 mol of naproxen ester 8 (the potassium salt of the ethyl sulfonate ester) was dispersed in 125 ml of 0.2 M sodium phosphate buffer at pH 7.8. 150 mg of enzyme A, as the commercially available preparation, were added, and the reaction handled as described in Example 6.2.1.1.
0.010 mol of ibuprofen ester 6 (the compound) were dissolved in 100 ml of 0.2 M sodium phosphate buffer at pH 7.0. 100 mg of enzyme A was added as the commercially available preparation, and the reaction handled as described above in Examples 6.2.1.1-6.2.1.7.
2.0 gm (0.0058 mole) of naproxen ester 9 (the sulfomethyl compound) was dissolved in 400 ml of 50 mM sodium phosphate buffer at pH 7.5. To the reaction were added 100 mg of Protease XXIII (A) as the commercially available preparation. After the enzyme had dissolved, the reaction mixture was incubated at 25 degrees for 16 hours. The reaction mixture was then acidified to pH 1-2 by the careful dropwise addition of concentrated HCl, and then it was extracted with ether (3×150 ml). The aqueous layer was retained. The combined organic layers were backwashed with water (2×100 ml), and these aqueous washings were added to the previously retained aqueous layer of the reaction. The ether layer was then washed once with 100 ml of brine, and dried over MgSO4.
In data set [4] the test system is protease Prozyme 6 (Enzyme F). Briefly: Asymmetric hydrolysis in an extractive dispersion reactor (hexane) with Enzyme F. It counts as biochemical, Asperqillus oryzae. The note with it: 100 mg Prozyme 6, 3.38 gm ester in 100 ml 0.2 M sodium phosphate buffer pH 7.0 and 100 ml hexane, room temperature, 3.5 hours. Here is the method: In this Example, the hexane was dispersed in the reaction vessel to extract the inhibitory ibuprofen acid as it is formed. The reaction was started by adding 100 mg of the protease from the fungus Asperqillus oryzae (from Amano Enzyme Corporation, Prozyme 6, 60,000 units per mg of solid).
After 3.5 hours at room temperature with vigorous stirring, the solution was acidified to pH 2 and extracted with 2 volumes of hexane. The aqueous phase was saved for subsequent workup. The hexane phase was dried over MgSO4 and evaporated to dryness. The resolved ibuprofen product so recovered consisted of 490 mg of white powder, indicating 24% conversion. The optical rotation was -0.568° (c=1.015 in ethanol), indicating the R isomer of ibuprofen.

The target in data set [5] is T2, Protease VIII: "Subtilopeptidase A" (subtilisin Carlsberg) (Enzyme B) (Bacillus licheniformis, UniProt P00780).
T2 sequence (P00780 106-379): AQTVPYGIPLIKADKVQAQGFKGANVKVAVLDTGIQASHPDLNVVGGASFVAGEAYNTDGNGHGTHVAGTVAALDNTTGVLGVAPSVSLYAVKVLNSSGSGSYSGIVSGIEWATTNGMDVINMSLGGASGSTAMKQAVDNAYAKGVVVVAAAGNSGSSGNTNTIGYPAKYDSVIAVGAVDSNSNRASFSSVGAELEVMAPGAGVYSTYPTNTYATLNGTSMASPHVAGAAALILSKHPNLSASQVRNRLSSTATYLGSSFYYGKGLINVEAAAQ
Briefly: Homogeneous aqueous enzymatic resolution (ester hydrolysis) with Enzyme B. It is filed as biochemical. The following applies: 100 mg enzyme B, 10 mmol ester in 100 ml 0.2 M phosphate buffer pH 7.0, 20-22° C., 20 hours.

Data set [6] deals with T3, Protease XXVII: "Nagarse" (Enzyme D) (Bacillus amyloliquefaciens, UniProt P00782).
T3 sequence (P00782 108-382): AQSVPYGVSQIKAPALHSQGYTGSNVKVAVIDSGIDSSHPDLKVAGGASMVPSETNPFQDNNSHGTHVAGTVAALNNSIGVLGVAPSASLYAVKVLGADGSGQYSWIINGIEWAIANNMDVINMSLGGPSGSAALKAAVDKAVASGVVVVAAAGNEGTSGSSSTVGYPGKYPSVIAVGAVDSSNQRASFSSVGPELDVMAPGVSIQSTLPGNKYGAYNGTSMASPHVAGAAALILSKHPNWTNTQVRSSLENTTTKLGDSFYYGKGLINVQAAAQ
Briefly: Homogeneous aqueous enzymatic resolution (ester hydrolysis) with Enzyme D. It counts as biochemical. The note with it: 100 mg enzyme D, 10 mmol ester in 100 ml 0.2 M phosphate buffer pH 7.0, 20-22° C., 20 hours.

The target in data set [7] is T3, Protease XXVII: "Nagarse" (Enzyme D). Briefly: Rates of hydrolysis of the two enantiomers (pH stat), Enzyme D. It counts as biochemical. The note with it: 50 mM ester, 50 mM buffer pH 7.6, 0.1 ml of 50 mg/ml enzyme D. Here is the method: (§1) 15 ml of a solution containing one enantiomer of the ester at a concentration of 50 mM, and Na3 PO4 buffer at 50 mM and pH 7.6 was observed using a pH stat device. 0.1 ml of a 50 mg/ml solution of enzyme D, made up from the commercially available preparation in 50 mM Na3 PO4 buffer at pH 7.6, were added. Rates of hydrolysis of both enantiomers of the ester compound were determined for the enzyme. The ratio of the rates of hydrolysis for the two enantiomers for the two enantiomers with respect to the enzyme indicate the stereospecificity of that enzyme's hydrolytic action on the racemic mixture of the ester. No evidence for the hydrolysis of the thioacetyl ester portion of the substrate molecule was found.

In data set [8] the test system is Protease XXIV: bacterial protease (Enzyme H). Briefly: Rates of hydrolysis of the two enantiomers (pH stat), Enzyme H. The following applies: for Rate (rate of hydrolysis): 50 mM ester, 50 mM buffer pH 7.6, 0.1 ml of 50 mg/ml Enzyme H. It counts as biochemical. Here is the method: as §1, with “Enzyme H,” for “enzyme D,”, “acetylthio” for “thioacetyl”
The subject of data set [9] is Protease XXIII: from Aspergillus oryzae (Enzyme A). Description: Rates of hydrolysis of the two enantiomers (pH stat), Enzyme A. It is filed as biochemical. The following applies: for Rate (rate of hydrolysis): 50 mM ester, 50 mM buffer pH 7.6, 0.1 ml of 50 mg/ml enzyme A. The method, then:
as §1, with “and Na” for “and Na3 PO4”, “enzyme A,” for “enzyme D,”, “the acetylthio” for “the thioacetyl”

Data set [10] concerns the target T2, Protease VIII: "Subtilopeptidase A" (subtilisin Carlsberg) (Enzyme B). Description: Rates of hydrolysis of the two enantiomers (pH stat), Enzyme B. It is filed as biochemical. The following applies: 50 mM ester, 50 mM buffer pH 7.6, 0.1 ml of 50 mg/ml enzyme B. The method, then:
as §1, with “Na” for “Na3 PO4”, “B,” for “D,”, “acetylthio” for “thioacetyl”

For data set [11], the system named is Protease XIV: from Streptomyces griseus (Enzyme G). Briefly: Rates of hydrolysis of the two enantiomers (pH stat), Enzyme G. It is filed as biochemical. The following applies: for Rate (rate of hydrolysis): 50 mM ester, 50 mM buffer pH 7.6, 0.1 ml of 50 mg/ml enzyme G. The method, then:
as §1, with “solution of protease enzyme G,” for “solution of enzyme D,”, “protease enzyme G, made up” for “of enzyme D, made up”, “50 mM Na buffer at” for “50 mM Na3 PO4 buffer at”, “for the protease enzyme. The” for “for the enzyme. The”, “of the acetylthio ester portion” for “of the thioacetyl ester portion”

Data set [12] is described as follows: Solubility by absorbance of saturated solutions at 262 nm. It is filed as physicochemical. The note with it: saturated solution, pH 7, 5 mM phosphate buffer, room temperature.

Molecules are shown by their SMILES. Converted amounts (≈) assume the structure as drawn. Where a name gives a salt, the structure may show the parent alone.

In general, Solubility refers to the concentration that dissolves in the medium under given conditions. Lower therefore signals a poorly soluble substance.

Regarding `CC(C)Cc1ccc(C(C)C(=O)OCS(=O)(=O)O)cc1` (centres unmarked) [Compound 1, Sodium Salt of 4-Sulfomethyl Ester of 2-(4-Isobutylphenyl)propanoic Acid], the “% e.e.” value in data set [1] was 70.7%; in data set [3] (acid product), above 99%; in data set [5] (acid product) it was 44.6%; in [6] (acid product), 37.7%. For the same molecule, the “conversion of racemic ester to acid” value in [2] is listed as 45%. For the same molecule, the “% CONVERSION” value was determined as 37.9% in data set [3], 29.1% in data set [5] and 34.0% in data set [6]. The molecule also registered a conversion in data set [4] of 24%.

On to `CC(=O)SC[C@@H](C)C(=O)OCS(=O)(=O)O` [Compound 14, Potassium Salt of the Sulfomethyl Ester of D-(-)-S-3-Acetylthio-2-methylpropanoic Acid], for which the “Rate (rate of hydrolysis)” value in data set [7] was 27 umols/hr/mg; in data set [8] it was 61 umols/hr/mg; in [9] it was 5.3 umols/hr/mg; in [10], 65 umols/hr/mg; in data set [11], 63 umols/hr/mg.

On to `CC(=O)SC[C@H](C)C(=O)OCS(=O)(=O)O` [Compound 15, Potassium Salt of the Sulfomethyl Ester of L-(+)-S-3-Acetylthio-2-methylpropanoic Acid], for which the “Rate (rate of hydrolysis)” value in data set [7] is given as 29 umols/hr/mg; in [8], 65 umols/hr/mg; in data set [9], 12 umols/hr/mg; in data set [10], 135 umols/hr/mg; in [11], 105 umols/hr/mg. The “Rate Ratio L/D” value in [8] (Enzyme H, pH 7.6) was found to be 1.1; in data set [9] (enzyme A, pH 7.6) it was 2.3; in data set [11] (enzyme G, pH 7.6), 1.7.

In data set [12], `COCCOC(=O)C(C)c1ccc(CC(C)C)cc1` (centres unmarked) [Methoxyethyl ester of ibuprofen] returned a Solubility of 180 µM (≈ 47.6 µg/mL).

(Values after patent US5057427A, “Method for resolution of stereoisomers” (Sepracor, Inc., priority 1988, dated 1991).)
